Data reported in patent publication US20230322769A1, “HETEROAROMATIC RING COMPOUND AS RET KINASE INHIBITOR, AND PREPARATION AND USE THEREOF” (JIANGSU CHIA TAI FENGHAI PHARMACEUTICAL CO., LTD., priority 2020, published 2023).
Read-outs that look alike come from different tables or passages of the source.

Columns and labels:
[1] = system: Ba/F3 KIF5B-RET cells; assay: Ba/F3 KIF5B-RET cell inhibition (CellTiter-Glo); type: cell-based; conditions: Mus musculus, BaF3, 72 h
Procedure: (§1) Activity Experiment 3: Inhibition of Ba/F3 KIF5B-RET Cells by Prepared Compounds Ba/F3 KIF5B-RET, Ba/F3KIF5B-RET-V804M, Ba/F3 RET-M918T and Ba/F3 KIF5B-RET-G810R cells growing in log phase were harvested and counted using a […]. The cell viability was determined by the trypan blue exclusion method, and the cell viability was kept over 90%. The cell concentration was adjusted, and 90 μL of the cell suspension was added to a 96-well plate. The cells in the 96-well plate were incubated overnight at 37° C. with 5% CO2 and 95% humidity. Corresponding gradient concentrations of drug solutions (the maximum concentration was 1000 nM) were added to the 96-well plate inoculated with cells at 10 μL/well. Triplicate wells were set per drug concentration, and the final concentration of DMSO was 0.1%. The drug-treated cells in the 96-well plate were incubated for another 72 h at 37° C. with 5% CO2 and 95% humidity. After the drug treatment was completed, 100 μL of CellTiter-Glo reagent was added to each well. The cell plate was shaken on an orbital shaker for 5 min to lyse the cells and then let stand at room temperature for 20 min to stabilize the luminescence signals, and then the luminescence values were read. The data were analyzed using the GraphPad Prism 5.0 software. Dose-response curves were fit to the data using nonlinear S-curve regression, and IC50 was calculated from the curves.

[2] = system: Ba/F3 KIF5B-RET-V804M cells; assay: Ba/F3 KIF5B-RET-V804M cell inhibition (CellTiter-Glo); type: cell-based; conditions: Mus musculus, BaF3, 72 h
Procedure: as §1

[3] = system: Ba/F3 RET-M918T cells; assay: Ba/F3 RET-M918T cell inhibition (CellTiter-Glo); type: cell-based; conditions: Mus musculus, BaF3, 72 h
Procedure: as §1

[4] = system: Ba/F3 KIF5B-RET-G810R cells; assay: Ba/F3 KIF5B-RET-G810R cell inhibition (CellTiter-Glo); type: cell-based; conditions: Mus musculus, BaF3, 72 h, maximum concentration 1000 nM
Procedure: as §1

[5] = target: T1, hERG potassium channel (Homo sapiens (Human), UniProt Q12809)
T1 sequence (Q12809 whole entry): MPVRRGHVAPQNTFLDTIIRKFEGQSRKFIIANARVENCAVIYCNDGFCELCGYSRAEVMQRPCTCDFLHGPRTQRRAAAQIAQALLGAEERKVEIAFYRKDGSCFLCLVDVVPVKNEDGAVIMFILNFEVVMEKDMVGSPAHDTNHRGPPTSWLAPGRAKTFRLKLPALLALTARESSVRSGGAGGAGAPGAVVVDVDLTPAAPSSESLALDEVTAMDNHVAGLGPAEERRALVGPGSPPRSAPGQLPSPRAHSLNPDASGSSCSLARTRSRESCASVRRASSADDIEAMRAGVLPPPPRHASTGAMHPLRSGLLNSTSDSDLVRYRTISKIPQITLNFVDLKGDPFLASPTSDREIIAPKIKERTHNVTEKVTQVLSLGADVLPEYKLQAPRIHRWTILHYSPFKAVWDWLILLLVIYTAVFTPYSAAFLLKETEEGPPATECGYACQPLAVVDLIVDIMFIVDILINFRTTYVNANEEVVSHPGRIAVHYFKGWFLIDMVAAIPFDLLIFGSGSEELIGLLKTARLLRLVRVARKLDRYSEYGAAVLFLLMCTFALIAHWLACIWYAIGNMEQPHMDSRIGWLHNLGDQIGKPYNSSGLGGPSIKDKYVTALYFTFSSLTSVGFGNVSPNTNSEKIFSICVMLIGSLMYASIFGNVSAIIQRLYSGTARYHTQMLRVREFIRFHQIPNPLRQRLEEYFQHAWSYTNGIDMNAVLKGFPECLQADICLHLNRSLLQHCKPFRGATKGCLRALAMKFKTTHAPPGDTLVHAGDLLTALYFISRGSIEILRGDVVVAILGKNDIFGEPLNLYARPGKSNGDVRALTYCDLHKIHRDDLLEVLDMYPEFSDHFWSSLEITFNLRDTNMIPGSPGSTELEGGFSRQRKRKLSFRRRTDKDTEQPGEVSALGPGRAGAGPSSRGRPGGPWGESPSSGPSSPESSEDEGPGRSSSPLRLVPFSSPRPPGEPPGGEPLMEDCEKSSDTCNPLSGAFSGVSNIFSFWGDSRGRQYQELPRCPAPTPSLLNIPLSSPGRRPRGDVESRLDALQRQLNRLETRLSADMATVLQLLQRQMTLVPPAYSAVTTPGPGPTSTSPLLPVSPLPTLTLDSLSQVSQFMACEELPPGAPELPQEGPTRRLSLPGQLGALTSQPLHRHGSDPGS

[6] = in vitro; conditions: human, microsomes; for microsomal CLint at 1 µM: CLint (μL/min/mg); for half-life at 1 µM: T1/2 (min)
[7] = Metabolic stability in human liver microsomes
[8] = target: T1, hERG potassium channel; assay: Inhibition of hERG potassium channel, whole-cell patch clamp in HEK293 cells
[9] = target: RET wild type (RET WT) (Homo sapiens (Human), UniProt P07949); assay: HTRF kinase activity assay, RET wild type; type: biochemical; conditions: 1 μM ATP
Chain of RET wild type (RET WT) (P07949 29-1114): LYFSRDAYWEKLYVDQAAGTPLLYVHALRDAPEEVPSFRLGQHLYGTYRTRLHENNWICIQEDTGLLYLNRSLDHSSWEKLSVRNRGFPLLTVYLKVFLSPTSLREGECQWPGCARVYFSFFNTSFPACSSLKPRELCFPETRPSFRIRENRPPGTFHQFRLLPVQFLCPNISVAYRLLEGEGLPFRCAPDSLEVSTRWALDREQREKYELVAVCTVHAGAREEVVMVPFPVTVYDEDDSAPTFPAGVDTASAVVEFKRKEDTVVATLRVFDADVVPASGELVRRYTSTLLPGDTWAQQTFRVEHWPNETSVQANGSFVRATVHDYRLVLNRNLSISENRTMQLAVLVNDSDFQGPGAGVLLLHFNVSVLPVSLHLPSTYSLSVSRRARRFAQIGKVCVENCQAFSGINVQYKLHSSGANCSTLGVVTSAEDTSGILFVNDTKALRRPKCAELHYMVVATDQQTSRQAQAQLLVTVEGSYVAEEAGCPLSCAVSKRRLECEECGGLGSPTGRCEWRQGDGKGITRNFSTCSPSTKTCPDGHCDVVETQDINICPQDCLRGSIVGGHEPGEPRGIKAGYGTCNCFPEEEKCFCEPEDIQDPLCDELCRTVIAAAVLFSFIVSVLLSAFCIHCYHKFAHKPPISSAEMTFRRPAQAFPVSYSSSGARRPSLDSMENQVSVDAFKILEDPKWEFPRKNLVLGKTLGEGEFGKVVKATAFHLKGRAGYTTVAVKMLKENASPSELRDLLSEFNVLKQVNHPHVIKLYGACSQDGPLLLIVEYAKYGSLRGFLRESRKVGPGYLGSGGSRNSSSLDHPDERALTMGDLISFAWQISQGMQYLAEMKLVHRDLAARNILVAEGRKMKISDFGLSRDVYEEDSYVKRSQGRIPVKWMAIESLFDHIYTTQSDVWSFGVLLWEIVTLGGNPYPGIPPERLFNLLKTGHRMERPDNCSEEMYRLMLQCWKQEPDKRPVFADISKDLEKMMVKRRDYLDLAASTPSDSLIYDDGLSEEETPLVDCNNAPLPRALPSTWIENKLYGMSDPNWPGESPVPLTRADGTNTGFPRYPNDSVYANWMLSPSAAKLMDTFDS

[10] = target: RET (V804M) (Homo sapiens (Human), UniProt P07949, V804M); assay: HTRF kinase activity assay, RET (V804M); type: biochemical; conditions: 10 μM ATP
Chain of RET (V804M) (P07949 29-1114 V804M): as the sequence (P07949 29-1114) above, with V776M counted along it

[11] = target: RET (M918T) (Homo sapiens (Human), UniProt P07949, M918T); assay: HTRF kinase activity assay, RET (M918T); type: biochemical; conditions: 10 μM ATP
Chain of RET (M918T) (P07949 29-1114 M918T): as the sequence (P07949 29-1114) above, with M890T counted along it

[12] = target: CCDC6-RET (Homo sapiens (Human), UniProt P07949+Q16204); assay: HTRF kinase activity assay, CCDC6-RET; type: biochemical; conditions: 1 μM ATP
Chain of CCDC6-RET (Homo sapiens (Human), UniProt P07949+Q16204) (P07949 other isoform, or with tags, fused parts or gaps): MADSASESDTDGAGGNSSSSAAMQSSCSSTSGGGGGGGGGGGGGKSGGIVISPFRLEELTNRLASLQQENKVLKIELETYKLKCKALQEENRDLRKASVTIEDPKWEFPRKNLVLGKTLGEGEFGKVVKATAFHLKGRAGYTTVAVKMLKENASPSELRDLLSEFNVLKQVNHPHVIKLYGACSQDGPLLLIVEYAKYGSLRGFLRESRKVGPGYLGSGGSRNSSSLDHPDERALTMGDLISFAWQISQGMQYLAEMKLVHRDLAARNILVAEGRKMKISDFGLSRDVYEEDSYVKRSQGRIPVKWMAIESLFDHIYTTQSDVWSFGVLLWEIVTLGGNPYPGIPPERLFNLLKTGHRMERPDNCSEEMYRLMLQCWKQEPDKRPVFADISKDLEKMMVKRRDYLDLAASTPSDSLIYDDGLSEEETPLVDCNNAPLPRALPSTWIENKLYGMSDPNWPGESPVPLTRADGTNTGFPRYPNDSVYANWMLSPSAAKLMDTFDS

[13] = target: KDR (VEGFR2) (Homo sapiens (Human), UniProt P35968); assay: HTRF kinase activity assay, KDR; type: biochemical; conditions: 20 μM ATP
Chain of KDR (VEGFR2) (P35968 20-1356): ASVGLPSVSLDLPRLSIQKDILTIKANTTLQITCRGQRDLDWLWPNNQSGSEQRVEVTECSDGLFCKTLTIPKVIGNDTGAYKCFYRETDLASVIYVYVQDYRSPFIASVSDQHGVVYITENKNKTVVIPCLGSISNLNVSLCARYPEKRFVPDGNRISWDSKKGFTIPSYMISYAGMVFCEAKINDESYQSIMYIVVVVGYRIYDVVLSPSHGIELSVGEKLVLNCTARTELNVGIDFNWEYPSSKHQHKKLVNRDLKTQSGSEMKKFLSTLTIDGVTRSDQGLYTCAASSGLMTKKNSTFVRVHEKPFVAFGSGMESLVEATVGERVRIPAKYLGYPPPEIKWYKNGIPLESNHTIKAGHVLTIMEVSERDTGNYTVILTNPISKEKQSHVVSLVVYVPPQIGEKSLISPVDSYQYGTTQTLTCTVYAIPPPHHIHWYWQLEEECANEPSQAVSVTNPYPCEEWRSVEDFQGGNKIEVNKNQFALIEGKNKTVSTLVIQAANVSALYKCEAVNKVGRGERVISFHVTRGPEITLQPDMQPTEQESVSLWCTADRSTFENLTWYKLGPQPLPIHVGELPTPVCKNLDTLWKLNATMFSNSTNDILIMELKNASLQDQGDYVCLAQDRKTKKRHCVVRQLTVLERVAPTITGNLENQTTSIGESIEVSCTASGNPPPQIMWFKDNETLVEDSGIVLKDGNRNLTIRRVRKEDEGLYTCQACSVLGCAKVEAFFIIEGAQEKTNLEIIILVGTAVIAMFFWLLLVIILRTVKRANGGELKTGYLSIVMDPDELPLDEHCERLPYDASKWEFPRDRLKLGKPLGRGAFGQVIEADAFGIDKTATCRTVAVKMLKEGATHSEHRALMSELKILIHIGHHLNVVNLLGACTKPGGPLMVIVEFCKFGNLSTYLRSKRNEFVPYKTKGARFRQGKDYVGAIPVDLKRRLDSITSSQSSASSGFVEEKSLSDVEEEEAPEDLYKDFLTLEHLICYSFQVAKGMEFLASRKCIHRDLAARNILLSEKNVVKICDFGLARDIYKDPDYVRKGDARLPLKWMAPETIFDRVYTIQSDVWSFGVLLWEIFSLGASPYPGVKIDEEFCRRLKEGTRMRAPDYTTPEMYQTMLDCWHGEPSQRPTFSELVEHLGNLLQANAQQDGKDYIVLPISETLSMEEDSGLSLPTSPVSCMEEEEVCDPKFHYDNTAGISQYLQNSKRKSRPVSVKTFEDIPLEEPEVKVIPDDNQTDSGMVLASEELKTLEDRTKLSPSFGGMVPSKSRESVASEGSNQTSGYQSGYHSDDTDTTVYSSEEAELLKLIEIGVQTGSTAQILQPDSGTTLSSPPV

[14] = target: CCDC6-RET (Homo sapiens (Human), UniProt P07949); assay: HTRF kinase activity assay, CCDC6-RET; type: biochemical; conditions: 1 μM ATP
Chain of CCDC6-RET (Homo sapiens (Human), UniProt P07949) (P07949 other isoform, or with tags, fused parts or gaps): as the sequence (P07949 other isoform, or with tags, fused parts or gaps) above

[15] = read-out: IC50 for inhibition of hERG potassium channel, HEK293 cells stably expressing hERG, patch clamp
[16] = T1/2 (min), human liver microsomes, NADPH, Table 3
[17] = CLint (μL/min/mg), human liver microsomes, NADPH, Table 3

SMILES | IC50 [1] | IC50 [9] | IC50 [10] | IC50 [11] | IC50 [13] | further results
CO[C@]1(C(=O)N[C@@H](C)c2ccc(-n3cc(F)cn3)nc2)CC[C@H](c2nc(C)cc(Nc3cc(C)[nH]n3)n2)CC1 [BLU-667, reference compound] | 11.3 nM |  |  |  |  | IC50 [2]: 11.1 nM; IC50 [3]: 12.9 nM; IC50 [4]: 481 nM
COc1ccc(CN2C3CC2CN(c2ccc(-c4cc(N5CC6CC(C5)N6)cn5ncc(C#N)c45)cn2)C3)cn1 [Compound 16] |  |  |  |  |  | IC50 [5]: 2060 nM; microsomal CLint at 1 µM [6]: 8.8 µL/min/mg; half-life at 1 µM [6]: 158 min
COc1ccc(CN2C3CC2CN(c2ccc(-c4cc(N5CC6CC(C5)N6C)cn5ncc(C#N)c45)cn2)C3)cn1 [Compound 17] |  |  |  |  |  | IC50 [5]: 1310 nM; microsomal CLint at 1 µM [6]: 36.4 µL/min/mg; half-life at 1 µM [6]: 38.1 min
COc1ccc(CN2C3CC2CN(c2ccc(-c4cc(N5CCP(C)(=O)CC5)cn5ncc(C#N)c45)cn2)C3)cn1 [Compound 20] |  |  |  |  |  | half-life at 1 µM [7]: 231 min; microsomal CLint at 1 µM [7]: 6 µL/min/mg; IC50 [8, 15]: 22200 nM
COc1ccc(CN2CCC(Nc3ccc(-c4cc(-c5cnn(C)c5)cn5ncc(C#N)c45)cn3)CC2)cn1 [Compound 21] |  | 45 nM | 188 nM | 80 nM | 109 nM | IC50 [12]: 60.5 nM
COc1ccc(CN2CCCN(c3ccc(-c4cc(-c5cnn(C)c5)cn5ncc(C#N)c45)cn3)CC2)cn1 [Compound 32] |  | 2.11 nM | 4.8 nM | 1.73 nM | 39.1 nM | IC50 [12]: 3.13 nM
COc1ccc(CN(C)C2CCCCC2N(C)c2ccc(-c3cc(-c4cnn(C)c4)cn4ncc(C#N)c34)cn2)cn1 (stereo not shown) [Compound 34] |  | 35.8 nM | 210 nM | 97.8 nM | 311 nM | IC50 [12]: 71.6 nM
COc1ccc(CN2C3CC2CN(c2ccc(-c4cc(-c5cnn6c5CCC6)cn5ncc(C#N)c45)cn2)C3)cn1 [Compound 51] |  | 4.61 nM | 7.16 nM | 3.9 nM | 52 nM | IC50 [12]: 2.15 nM
COc1ccc(CN2C3CC2CN(c2ccc(-c4cc(-c5cc6n(n5)CCC6)cn5ncc(C#N)c45)cn2)C3)cn1 [Compound 57] |  |  |  |  |  | microsomal CLint at 1 µM [6]: 69.8 µL/min/mg; half-life at 1 µM [7, 16]: 19.9 min
COc1ccc(CN2CCN(c3ccc(-c4cc(-c5cc6n(n5)CCC6)cn5ncc(C#N)c45)cn3)CC2)cn1 [Compound 58] |  | 4.98 nM | 19.3 nM | 9.52 nM | 134 nM | 
COc1ccc(CN2C3CC2CN(c2ccc(-c4cc(N5CCOCC5)cn5ncc(C#N)c45)cn2)C3)cn1 [Compound 65] | 8.06 nM |  |  |  |  | IC50 [2]: 58.6 nM; IC50 [3]: 23.9 nM; microsomal CLint at 1 µM [7, 17]: 44.8 µL/min/mg; half-life at 1 µM [7, 16]: 30.9 min; IC50 [8, 15]: 2720 nM
COc1ccc(CN2C3CC2CN(c2ccc(-c4cc(C#CC(C)(C)O)cn5ncc(C#N)c45)cn2)C3)cn1 [Compound 66] | 9.17 nM | 1.66 nM | 7.69 nM | 2.05 nM | 124 nM | IC50 [14]: 1.13 nM
COc1ccc(CN2C3CC2CN(c2ccc(-c4cc(N5CCC(O)C5)cn5ncc(C#N)c45)cn2)C3)cn1 (stereo not shown) [Compound 67] | 3.58 nM | 0.79 nM | 1.09 nM | 0.75 nM | 24.6 nM | 
COc1ccc(CN2C3CC2CN(c2ccc(-c4cc(N5CCC(OC)C5)cn5ncc(C#N)c45)cn2)C3)cn1 (stereo not shown) [Compound 68] | 2 nM | 1.3 nM | 5.37 nM | 8.47 nM | 16.6 nM | IC50 [14]: 2.54 nM
COc1ccc(CN2C3CC2CN(c2ccc(-c4cc(N5CCOCC5=O)cn5ncc(C#N)c45)cn2)C3)cn1 [Compound 69] |  | 18.6 nM | 38.5 nM | 22.3 nM | 755 nM | IC50 [14]: 12 nM
COc1ccc(CN2C3CC2CN(c2ccc(-c4cc(N5CCC(C)(O)C5)cn5ncc(C#N)c45)cn2)C3)cn1 (stereo not shown) [Compound 70] | 0.99 nM | 1.17 nM | 1.01 nM | 1.62 nM | 23.9 nM | IC50 [14]: 1.02 nM; IC50 [2]: 11.9 nM; IC50 [3]: 1.15 nM; IC50 [4]: 194 nM; microsomal CLint at 1 µM [7, 17]: 50.6 µL/min/mg; half-life at 1 µM [7, 16]: 27.4 min; IC50 [8]: 4740 nM
COc1ccc(CN2C3CC2CN(c2ccc(-c4cc(NCC(C)(C)O)cn5ncc(C#N)c45)cn2)C3)cn1 [Compound 78] | 13.6 nM |  |  |  |  | 
COc1ccc(CN2C3CC2CN(c2ccc(-c4cc(N5CCCC(O)C5)cn5ncc(C#N)c45)cn2)C3)cn1 (stereo not shown) [Compound 82] | 17.1 nM |  |  |  |  | 
COc1ccc(CN2C3CC2CN(c2ccc(-c4cc(N5CC(C)(O)C5)cn5ncc(C#N)c45)cn2)C3)cn1 [Compound 86] | 3.66 nM |  |  |  |  | 
COc1ccc(CN2C3CC2CN(c2ccc(-c4cc(N5CCN(C)CC5)cn5ncc(C#N)c45)cn2)C3)cn1 [Compound 87] | 11.8 nM |  |  |  |  | IC50 [2]: 116 nM; IC50 [3]: 13.4 nM; IC50 [4]: 431 nM; microsomal CLint at 1 µM [7, 17]: 35.8 µL/min/mg; half-life at 1 µM [7, 16]: 38.7 min; IC50 [8, 15]: 2130 nM
COc1ccc(CN2C3CC2CN(c2ccc(-c4cc(N5CCN(C)C(=O)C5)cn5ncc(C#N)c45)cn2)C3)cn1 [Compound 89] | 24 nM |  |  |  |  | IC50 [2]: 95.3 nM; IC50 [3]: 11.6 nM; IC50 [4]: 959 nM; IC50 [8, 15]: 7170 nM
COc1ccc(CN2C3CC2CN(c2ccc(-c4cc(N5CCNCC5)cn5ncc(C#N)c45)cn2)C3)cn1 [Compound 96] | 41.8 nM |  |  |  |  | IC50 [2]: 196 nM; IC50 [3]: 45.1 nM
[2H]C([2H])([2H])N1CCN(c2cc(-c3ccc(N4CC5CC(C4)[N+]5([O-])Cc4ccc(OC)nc4)nc3)c3c(C#N)cnn3c2)CC1 (stereo not shown) [Compound 99] |  | 56.6 nM |  |  |  | 
[2H]C([2H])([2H])[N+]1([O-])CCN(c2cc(-c3ccc(N4CC5CC(C4)N5Cc4ccc(OC)nc4)nc3)c3c(C#N)cnn3c2)CC1 [Compound 101] |  | 2.5 nM |  |  | 215 nM | 
